Assays:
[1] = tested on: Phakopsora pachyrhizi; assay: Curative activity against soybean rust caused by Phakopsora pachyrhizi (Example G1, sprayed two days after incubation); format: in vivo; settings: soybean seedlings, 300 ppm aqueous active compound preparation, sprayed to runoff two days after 24 h incubation, assessed after a further 10 days; untreated plants 90% infected
Method: (§1) The active compounds were prepared separately or together as a stock solution with 25 mg of active compound, which was made up to 10 ml with a mixture of acetone and/or DMSO and the emulsifier Uniperol® EL (wetting agent with emulsifying and dispersant action based on ethoxylated alkylphenols) in the volume ratio solvent/emulsifier of 99 to 1. Subsequently, it was made up to 100 ml with water. This stock solution was diluted with the described solvent/emulsifier/water mixture to the active compound concentration indicated below. Alternatively to this, the active compounds were used as a commercially available ready-to-use solution and diluted with water to the active compound concentration indicated.
Leaves of soybean seedlings grown in pots were inoculated with a spore suspension of soybean rust (Phakopsora pachyrhizi). The pots were then placed in a chamber of high atmospheric humidity (90 to 95%) and 23 to 27° C. for 24 hours. During this time, the spores germinated and the germ tubes penetrated into the leaf tissue. The infected plants were then cultivated further in a greenhouse at temperatures between 23 and 27° C. and 60 to 80% relative atmospheric humidity. After two days, the plants were sprayed to runoff point with the active compound solution described above at the active compound concentration indicated below. After the spray coating had dried on, the test plants were cultivated in a greenhouse at temperatures between 23 and 27° C. and 60 to 80% relative atmospheric humidity for a further 10 days. The extent of the rust fungus development on the leaves was then determined visually in % infections.

[2] = tested on: Phakopsora pachyrhizi; assay: Curative activity against soybean rust caused by Phakopsora pachyrhizi (Example G2, sprayed directly after 24 h incubation); format: in vivo; settings: soybean seedlings, 300 ppm aqueous active compound preparation, sprayed to runoff after 24 h incubation, assessed after a further 14 days; untreated plants 90% infected
Method: as §1
Leaves of soybean seedlings grown in pots were inoculated with a spore suspension of soybean rust (Phakopsora pachyrhizi). The pots were then placed in a chamber of high atmospheric humidity (90 to 95%) and 23 to 27° C. for 24 hours. During this time, the spores germinated and the germ tubes penetrated into the leaf tissue. The infected plants were then sprayed to runoff point with the active compound solution described above at the active compound concentration indicated below. […] The extent of the rust fungus development on the leaves was then determined visually in % infections.

## CC(C)[C@H](O)[C@@H](CCCCOc1cc(F)ccc1F)n1nc[nH]c1=S (racemic) [I.A4, (RS,SR)-2-[5-(2,5-difluorophenoxy)-1-(1-hydroxy-2-methylpropyl)pentyl]-2,4-dihydro[1,2,4]triazole-3-thione]
[1]
  infection (extent of the rust fungus development on the leaves, determined visually): 0%

## CC(C)[C@H](O)[C@@H](CCCCOc1cccc(Cl)c1Cl)n1nc[nH]c1=S (racemic) [I.A2, (RS,SR)-2-[5-(2,3-dichlorophenoxy)-1-(1-hydroxy-2-methylpropyl)pentyl]-2,4-dihydro[1,2,4]triazole-3-thione]
[1]
  infection (extent of the rust fungus development on the leaves, determined visually): 0%

## CC(C)[C@H](O)[C@@H](CCCCOc1cccc(F)c1F)n1nc[nH]c1=S (racemic) [I.A1, (RS,SR)-2-[5-(2,3-difluorophenoxy)-1-(1-hydroxy-2-methylpropyl)pentyl]-2,4-dihydro[1,2,4]triazole-3-thione]
[2]
  infection (extent of the rust fungus development on the leaves, determined visually): 0%

## CC(C)[C@H](O)[C@@H](CCCCOc1ccc(Cl)cc1Cl)n1nc[nH]c1=S (racemic) [I.A3, (RS,SR)-2-[5-(2,4-dichlorophenoxy)-1-(1-hydroxy-2-methylpropyl)pentyl]-2,4-dihydro[1,2,4]triazole-3-thione]
[1]
  infection (extent of the rust fungus development on the leaves, determined visually): 0%

From patent publication US20110190122A1, “Triazole and Imidazole Compounds, Use Thereof and Agents Containing Them” (BASF SE, priority 2008, published 2011)
